The Km is the substrate concentration at which the rate is half of its maximum.

Km data for 2 compounds are collected here from article PMC6790676, “Increase in lysophosphatidate acyltransferase activity in oilseed rape (Brassica napus) increases seed triacylglycerol content despite its low intrinsic flux control coefficient” (The New Phytologist, 2019).

The test system of the experiment is T1, LPAAT (lysophosphatidate acyltransferase, microsomal preparations).
T1 construct: gene LPAT2; native microsomes from 27 DAF embryos; several endogenous ER isoenzymes
Nature of the experiment: […]-PA formation, TLC; bi-substrate rate equation fit. Format: biochemical. The conditions noted are these: 50 mM Tris pH 7.5, 1 mg/ml BSA, 30°C, 10 min, embryo microsomes, line not told.

SMILES strings stand for the structures.

For `CCCCCCCC/C=C\CCCCCCCC(=O)OC[C@@H](O)COP(=O)(O)O` [LPA], for the setting “co-substrate 1-14C-oleoyl-CoA at high concentration”, the Michaelis-Menten constant (Km) worked out at 15.2 µM. Consider `CCCCCCCC/C=C\CCCCCCCC(=O)SCCNC(=O)CCNC(=O)[C@H](O)C(C)(C)COP(=O)(O)OP(=O)(O)OC[C@H]1O[C@@H](n2cnc3c(N)ncnc32)[C@H](O)[C@@H]1OP(=O)(O)O` [oleoyl-CoA], for which the Michaelis-Menten constant (Km) (co-substrate LPA at high concentration, labelled compound (1-14C-oleoyl-CoA)) amounted to 103 µM.
